Experiments:
Type in all cases: cell-based
Details in all cases: human fibroblast culture, radioactive labelling
human dermal fibroblasts [1] = assay: Thymidine incorporation (cell growth) in human fibroblast cultures
Description: (§1) In another embodiment of the invention the CSBP obtained in the present example was characterised by its efficiency in stimulating the fundamental metabolism of human dermal fibroblasts, more particularly by incorporation of various markers such as thymidine (cell growth), leucine (protein synthesis) and glucosamine (synthesis of GAG).
(§2) Tests in vitro on human fibroblast cultures are a means of evaluating the capacity of CSBP to stimulate the fundamental metabolism of the extracellular matrix of the cutis. Under conventional conditions of cultivation in triplicate, the CSBP according to the invention and positive references (EGF, epidermis growth factor at 10 ng/ml, TGF-β human transformation factor b at 10 ng/ml and vitamin C at 20 mg/ml) were placed in contact with fibroblasts. The neosynthesis can be quantified by radioactive labelling of the specific metabolites (amino acids). Two concentrations of CSBP were tested: 2 and 0.4 mg/ml. The results obtained in the following table were subjected to the Dunnett test:
(§3) The culture conditions were as follows:
(§4) Culture medium MEM/M199: sodium bicarbonate 1.87 mg/ml, L-glutamine 2 mM, penicillin 50 IU/ml and foetal calf serum 10%.

human dermal fibroblasts [2] = assay: Leucine incorporation (protein synthesis) in human fibroblast cultures
Description: as §1, §2, §3, §4

human dermal fibroblasts [3] = assay: Glucosamine incorporation (synthesis of GAG) in human fibroblast cultures
Description: as §1, §2, §3, §4

“EGF: epidermis growth factor, positive reference (NSDSECPLSHDGYCLHDGVCMYIEALDKYACNCVVGYIGERCQYRDLKWWELR; Epidermal growth factor; UniProt P01133 971-1023, looked up) [reference compound]” was tested, and the “% Thymidine” value (human dermal fibroblasts [1]; positive reference EGF at 10 ng/ml) was “EGF: 100%”.
For “low molecular weight chondroitin sulphate [CSBP]”, the “% Thymidine” value (human dermal fibroblasts [1]; CSBP 0.4 mg/ml) was 74 p < 0.01%, the “% Thymidine” value (human dermal fibroblasts [1]; CSBP 2.0 mg/ml) was 183 p < 0.01% and the “% Leucine” value (human dermal fibroblasts [2]; CSBP 0.4 mg/ml) was 44 p < 0.05%. For the same compound, the “% Leucine” value (human dermal fibroblasts [2]; CSBP 2.0 mg/ml) was 88 p < 0.01%, the “% Glucosamine” value (human dermal fibroblasts [3]; CSBP 0.4 mg/ml) was 57 p < 0.01% and the “% Glucosamine” value (human dermal fibroblasts [3]; CSBP 2.0 mg/ml) was 178 p < 0.01%.
With `O=C1O[C@H]([C@@H](O)CO)C(O)=C1O` [VIT C, vitamin C, reference compound] the “% Leucine” value (human dermal fibroblasts [2]; positive reference vitamin C) was “VIT C: 45%”.

From patent US20030032620A1, “Low molecular weight chondroitin sulphate compound having cosmetic activity” (priority 2001, published 2003)
